# Source: the NIST ThermoML archive (doi:10.1021/je800591u)
# ± gives the expanded uncertainty stated by the source.
# Conditions: Liquid, Ebulliometric method (Recirculating still)
SMILES,vapor or sublimation pressure (288.15 K) [kPa],vapor or sublimation pressure (303.15 K) [kPa],vapor or sublimation pressure (318.15 K) [kPa],vapor or sublimation pressure (333.15 K) [kPa],vapor or sublimation pressure (348.15 K) [kPa],vapor or sublimation pressure (363.15 K) [kPa]
"FC(C(F)(F)F)C(F)(F)F [1,1,1,2,3,3,3-heptafluoropropane]",335 ± 14,529 ± 14,804 ± 14,1176 ± 15,1664 ± 16,2294 ± 17
C=C(C)C [2-methylpropene],223 ± 14,352 ± 14,536 ± 14,785 ± 14,1107 ± 15,1515 ± 15
